Test results: US20220324835A1 (Nurix Therapeutics, Inc., priority 2018, published 2022)
pIC50: −log10 of the molar value.

Legend:
T-cell [1] = experiment: CD25 cell surface staining on T-cells stimulated with anti-CD3 antibody alone (Biological Example 2); type: cell-based, human; details: T-cell, fold change over baseline, primary human total T-cells, read-out: CD25 staining Anti-CD3 stimulation; for fold induction at 1 µM: 1 μM Cbl-b inhibitor; for fold induction at 8 µM: 8 μM Cbl-b inhibitor
Cbl-b [2] = biological target: T1, Cbl-b (Homo sapiens, UniProt Q13191); experiment: Cbl-b activity assay (Cbl-b inhibition assay), TR-FRET of Cbl-b interaction with UbcH5B-Ub; type: biochemical; details: assay buffer with 100 mM NaCl, 60 nM Src kinase; read-out: Cbl-b activity IC50
Outline: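 Compound-treated Cbl-b was incubated 1.5 h with Src kinase (60 nM final; 30 nM for asterisked values, which also used 50 mM instead of 100 mM NaCl), 1 mM ATP and 5 mM MgCl2. Binding to fluorescent Ub-loaded UbcH5B (C85K mutant) was then read by TR-FRET after 1 h more.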

T-cell [3] = experiment: IL-2 secretion from T-cells stimulated with anti-CD3 antibody alone (Biological Example 2); type: cell-based, human; details: T-cell, fold change over baseline, primary human total T-cells, read-out: IL-2 secretion Anti-CD3 stimulation; for fold induction at 1 µM: 1 μM Cbl-b inhibitor; for fold induction at 8 µM: 8 μM Cbl-b inhibitor
T-cell [4] = experiment: IL-2 secretion from T-cells co-stimulated with anti-CD3 and anti-CD28 antibody (Biological Example 2); type: cell-based, human; details: Homo sapiens, T-cell, fold change over baseline, primary human total T-cells, read-out: IL-2 secretion Anti-CD3/Anti-CD28 stimulation; for fold induction at 0.3 µM: 0.3 μM Cbl-b inhibitor; for fold induction at 1 µM: 1 μM Cbl-b inhibitor; for fold induction at 4 µM: 4 μM Cbl-b inhibitor
Outline: (§1)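 Values are fold-change over baseline: readings (IL-2 release, CD25 staining) from inhibitor-treated T-cells divided against untreated cells […]. No detailed procedure stated.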

T-cell [5] = experiment: CD25 cell surface staining on T-cells co-stimulated with anti-CD3 and anti-CD28 antibody (Biological Example 2); type: cell-based, human; details: Homo sapiens, T-cell, fold change over baseline, primary human total T-cells, read-out: CD25 staining Anti-CD3/Anti-CD28 stimulation; for fold induction at 0.3 µM: 0.3 μM Cbl-b inhibitor; for fold induction at 1 µM: 1 μM Cbl-b inhibitor; for fold induction at 4 µM: 4 μM Cbl-b inhibitor
Outline: as §1

Cbl-b [6] = biological target: T1, Cbl-b; experiment: Cbl-b inhibition assay (Cbl-b activity assay, FRET, Biological Example 1; 100 mM NaCl, 60 nM Src kinase); type: biochemical; details: upper bound stated in text lists; read-out: IC50 values in the Cbl-b inhibition assay of Biological Example 1
Outline: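 Inhibitor activity is measured as reduced terbium-to-fluorescein FRET between streptavidin-terbium on biotinylated Cbl-b and Bodipy-fluorescein ubiquitin carried by an irreversible UbcH5B-Ub conjugate, binding of which depends on Src phosphorylation of Cbl-b.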

T1 sequence (Q13191 36-427): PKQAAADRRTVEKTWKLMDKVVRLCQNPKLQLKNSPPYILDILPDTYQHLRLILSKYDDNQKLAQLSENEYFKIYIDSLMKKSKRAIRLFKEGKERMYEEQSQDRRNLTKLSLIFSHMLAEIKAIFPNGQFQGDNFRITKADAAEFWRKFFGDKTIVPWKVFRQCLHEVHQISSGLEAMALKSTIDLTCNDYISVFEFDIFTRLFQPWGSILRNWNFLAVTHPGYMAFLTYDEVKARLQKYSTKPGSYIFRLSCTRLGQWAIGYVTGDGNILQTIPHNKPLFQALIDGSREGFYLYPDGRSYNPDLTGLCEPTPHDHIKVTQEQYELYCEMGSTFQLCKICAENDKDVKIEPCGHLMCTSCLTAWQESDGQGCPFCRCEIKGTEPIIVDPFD

Compound	fold induction at 1 µM (T-cell [1])	fold induction at 8 µM (T-cell [1])	pIC50 (Cbl-b [2])	fold induction at 1 µM (T-cell [3])	fold induction at 8 µM (T-cell [3])	fold induction at 0.3 µM (T-cell [4])	fold induction at 1 µM (T-cell [4])	fold induction at 4 µM (T-cell [4])	fold induction at 0.3 µM (T-cell [5])	fold induction at 1 µM (T-cell [5])	fold induction at 4 µM (T-cell [5])	pIC50 (Cbl-b [6])
C[C@H](Cc1nncn1C)c1cccc(NC(=O)c2ccnc3ccnn23)c1 [Compound 328, (R)-N-(3-(1-(4-Methyl-4H-1,2,4-triazol-3-yl)propan-2-yl)phenyl)pyrazolo[1,5-a]pyrimidine-7-carboxamide]	0.801 to 1	> 1	> 7.00	0.051 to 0.1	0.101 to 0.15	1.01 to 2.5	1.01 to 2.5	2.51 to 5	1.01 to 1.3	1.01 to 1.3	1.01 to 1.3	≥ 7.00
Cc1cc(C(=O)Nc2cccc([C@H](C)Cc3nncn3C)c2)nc2ccnn12 [Compound 329, (R)-7-Methyl-N-(3-(1-(4-methyl-4H-1,2,4-triazol-3-yl)propan-2-yl)phenyl)pyrazolo[1,5-a]pyrimidine-5-carboxamide]	0.601 to 0.8	> 1	6.52 to 7.00	0.101 to 0.15	> 0.201	1.01 to 2.5	1.01 to 2.5	5 to 7.5	1.01 to 1.3	1.01 to 1.3	1.31 to 1.5	≥ 6.52
Cc1cc(C(=O)Nc2cccc([C@H]3C[C@H]3c3nncn3C)c2)nc(C2CC2)n1 [Compound 333, 2-cyclopropyl-6-methyl-N-{3-[(1 S,2R)-2-(4-methyl-1,2,4-triazol-3-yl)cyclopropyl]phenyl}pyrimidine-4-carboxamide]	0.801 to 1	> 1	6.52 to 7.00	0.101 to 0.15	> 0.201	1.01 to 2.5	2.51 to 5	5 to 7.5	1.01 to 1.3	1.01 to 1.3	1.01 to 1.3	≥ 6.52
Cc1cc(C(=O)Nc2cccc([C@H](C)Cc3nncs3)c2)nc(C2CC2)n1 [Compound 334, (R)-N-(3-(1-(1,3,4-thiadiazol-2-yl)propan-2-yl)phenyl)-2-cyclopropyl-6-methylpyrimidine-4-carboxamide]	0.601 to 0.8	0.801 to 1	6.52 to 7.00	0.101 to 0.15	> 0.201	1.01 to 2.5	2.51 to 5	5 to 7.5	1.01 to 1.3	1.01 to 1.3	1.01 to 1.3	≥ 6.52
Cn1cnnc1CC1(c2cccc(NC(=O)c3ccnc(C(F)(F)F)n3)c2)COC1 [Compound 337, N-(3-(3-((4-methyl-4H-1,2,4-triazol-3-yl)methyl)oxetan-3-yl)phenyl)-2-(trifluoromethyl)pyrimidine-4-carboxamide]	0.601 to 0.8	> 1	6.52 to 7.00	0.051 to 0.1	0.151 to 0.2	1.01 to 2.5	2.51 to 5	2.51 to 5	1.01 to 1.3	1.01 to 1.3	1.01 to 1.3	≥ 6.52
Cc1cc(C(=O)Nc2cccc(C3(Cc4nncn4C)COC3)c2)nc(C(F)(F)F)n1 [Compound 338, 6-methyl-N-(3-(3-((4-methyl-4H-1,2,4-triazol-3-yl)methyl)oxetan-3-yl)phenyl)-2-(trifluoromethyl)pyrimidine-4-carboxamide]	0.801 to 1	> 1	> 7.00	0.101 to 0.15	> 0.201	1.01 to 2.5	2.51 to 5	> 7.5	1.01 to 1.3	1.01 to 1.3	1.01 to 1.3	≥ 7.00
Cc1cc(C(=O)Nc2cccc(C3(Cc4nncn4C)COC3)c2)nc(C2CC2)c1 [Compound 339, 6-cyclopropyl-4-methyl-N-(3-(3-((4-methyl-4H-1,2,4-triazol-3-yl)methyl)oxetan-3-yl)phenyl)picolinamide]	> 1	> 1	> 7.00	> 0.201	> 0.201	5 to 7.5	> 7.5	> 7.5	1.31 to 1.5	1.31 to 1.5	1.51 to 1.75	≥ 7.00
Cc1cc(C(=O)Nc2cccc(C3(Cc4nncn4C)COC3)c2)nc(C2CCC2)n1 [Compound 340, 2-cyclobutyl-6-methyl-N-(3-(3-((4-methyl-4H-1,2,4-triazol-3-yl)methyl)oxetan-3-yl)phenyl)pyrimidine-4-carboxamide]	0.801 to 1	> 1	> 7.00	0.151 to 0.2	> 0.201	1.01 to 2.5	5 to 7.5	> 7.5	1.01 to 1.3	1.01 to 1.3	1.31 to 1.5	≥ 7.00
Cn1cnnc1CC1(c2cccc(NC(=O)c3cc(C4CC4)nc(C(F)(F)F)n3)c2)COC1 [Compound 341, 6-cyclopropyl-N-(3-(3-((4-methyl-4H-1,2,4-triazol-3-yl)methyl)oxetan-3-yl)phenyl)-2-(trifluoromethyl)pyrimidine-4-carboxamide]	0.801 to 1	> 1	> 7.00	0.151 to 0.2	> 0.201	2.51 to 5	> 7.5	> 7.5	1.01 to 1.3	1.31 to 1.5	1.51 to 1.75	≥ 7.00
COc1cc(C(=O)Nc2cccc(C3(Cc4nncn4C)COC3)c2)nc(C2CC2)n1 [Compound 342, 2-cyclopropyl-6-methoxy-N-(3-(3-((4-methyl-4H-1,2,4-triazol-3-yl)methyl)oxetan-3-yl)phenyl)pyrimidine-4-carboxamide]	> 1	–	> 7.00	0.151 to 0.2	–	5 to 7.5	> 7.5	–	1.01 to 1.3	1.31 to 1.5	–	≥ 7.00
Cn1cnnc1CC1(c2cccc(NC(=O)c3[nH]nc4c3OCCC4)c2)COC1 [Compound 343, N-(3-(3-((4-Methyl-4H-1,2,4-triazol-3-yl)methyl)oxetan-3-yl)phenyl)-2,5,6,7-tetrahydropyrano[3,2-c]pyrazole-3-carboxamide]	0.601 to 0.8	–	> 7.00	0.051 to 0.1	–	1.01 to 2.5	1.01 to 2.5	–	1.01 to 1.3	1.01 to 1.3	–	≥ 7.00
Cn1cnnc1C(F)(F)[C@](C)(F)c1cccc(NC(=O)c2nc3c(C(F)(F)F)cccc3[nH]2)c1 [Compound 345, (R)-N-(3-(1,1,2-trifluoro-1-(4-methyl-4H-1,2,4-triazol-3-yl)propan-2-yl)phenyl)-4-(trifluoromethyl)-1H-benzo[d]imidazole-2-carboxamide]	0.601 to 0.8	0.601 to 0.8	6.52 to 7.00	0.051 to 0.1	0.151 to 0.2	1.01 to 2.5	1.01 to 2.5	2.51 to 5	1.01 to 1.3	1.01 to 1.3	1.01 to 1.3	≥ 6.52
Cc1cc(C(=O)Nc2cccc(C3(C(F)(F)c4nncn4C)CC3)c2)nc(C2CC2)n1 [Compound 346, 2-cyclopropyl-N-(3-{1-[difluoro(4-methyl-4H-1,2,4-triazol-3-yl)methyl]cyclopropyl}phenyl)-6-methylpyrimidine-4-carboxamide]	0.601 to 0.8	–	> 7.00	0.101 to 0.15	–	1.01 to 2.5	2.51 to 5	–	1.01 to 1.3	1.01 to 1.3	–	≥ 7.00
